Consider 5 molecules from patent publication US20080213813A1, “Histone deacetylase inhibitor and use thereof” (priority 2002, published 2008).

What all share (format): cell-based, human
For one data set, the system named is acetylated α-tubulin. Nature of the data set: Acetylation of α-tubulin in HeLa cells (Western blot). Particulars: 200 nM, 24, 30, 36 and 48 hours, FIG. 4. The method, then:
The each synthesized antisense oligonucleotide was dissolved in sterile water, and was introduced into HeLa cells using the OligofectAMINE (Invitrogen) according to an attached protocol. The 1.5×10^5 HeLa cells were plated in a 6-well plate, the final concentration of antisense oligonucleotide was set at 200 nM, and OligofectAMINE was used at 3 μl/well.
[…] After the cells were lysed with a SDS-PAGE sample buffer (BPB-free) and protein concentration was determined, the cell lysate at 25 μg/lane was separated by SDS-PAGE, transferred to a PVDF membrane, and immunoblotted with anti-acetylated α-tubulin antibody (clone 6-11B-1, Sigma), anti-α-tubulin antibody (clone DMlA, Sigma) or anti-HDAC6 antibody (H-300, Santa Cruz).
On the technique in general: A western blot detects proteins with antibodies after separation by electrophoresis.

Data set [1] has as its system HDAC6. Nature of the data set: Suppression of HDAC6 protein expression in HeLa cells (Western blot). Particulars: for production of HDAC6, changing treatment time: 200 nM, 24, 30, 36 and 48 hours, FIG. 4.
Data set [2] concerns HeLa cells. In words: Changes in microtubule structure in HeLa cells (immunofluorescence, confocal microscopy). To be noted: FIG. 5. As for the experimental part: HeLa cells were plated on the Lab-TekII Chambered Coverglass (Nunc), and were subjected to:
(1) treatment for 16 hours with 1 μM Paclitaxel (Sigma), a microtubule polymerizing agent;
(3) the introduction of HDAC6 antisense oligonucleotide No. 4 at a final concentration of 200 nM with OligofectAMINE followed by a 24-hour culture.
Then, Lab-TekII Chambered Coverglass was washed with 0.1 M PIPES (pH 6.9), the cells were fixed in 0.5% glutaraldehyde/0.1 M PIPES (pH 6.9) for 10 minutes, washed three times with PBS, permealized three times with 0.5% Triton X100/PBS for 5 minutes each, washed three times with PBS, treated three times with 2.5 mg/ml sodium borohydride/50% ethanol for 10 minutes each, washed three times with PBS, blocked with 10% normal goat serum/PBS, reacted with a primary antibody (a) anti-acetylated α-tubulin antibody (clone 6-11B-1, Sigma) or (b) anti-α-tubulin antibody (clone DM lA, Sigma)/PBS for 1 hour, washed three times with 0.1% Tween 20/PBS, reacted with a second antibody Alexa Fluor 488-conjugated anti-mouse IgG (Molecular Probe)/PBS for 30 minutes, and washed three times with 0.1% Tween 20/PBS, and then examined under a conforcal laser scanning microscope (Carl Zeiss).

For data set [3], the system named is HeLa cells. Nature of the data set: Microtubule stability against Colcemid in HeLa cells (immunofluorescence). To be noted: pretreated (1 μM 16 hours, or 200 nM oligonucleotide 24 hours), then 1 μM Colcemid 15 minutes, FIG. 11.
Experimental: (3) the introduction of HDAC6 antisense oligonucleotide No. 16 at a final concentration of 200 nM with OligofectAMINE followed by a 24-hour culture.
Then, Lab-TekII Chambered Coverglass was washed with 0.1 M PIPES (pH 6.9), the cells were fixed in 0.5% glutaraldehyde/0.1 PIPES (pH 6.9) for 10 minutes, washed three times with PBS, permealized three times with 0.5% Triton X100/PBS for 5 minutes each, washed three times with PBS, treated three times with 2.5 mg/ml sodium borohydride/50% ethanol for 10 minutes each, washed three times with PBS, blocked with 10% normal goat serum/PBS, reacted with a primary antibody rat anti-α-tubulin monoclonal antibody (MAB1864; CHEMICON)/PBS for 1 hour, washed three times with 0.1% Tween 20/PBS, reacted with a second antibody Alexa Fluor 488-conjugated anti-rat IgG (Molecular Probe)/PBS for 30 minutes, and washed three times with 0.1% Tween 20/PBS, and then examined under a conforcal laser scanning microscope (Carl Zeiss).
The subject of data set [4] is HeLa cells. Nature of the data set: Induction of apoptosis in HeLa cells (Annexin V-PE, FACS). To be noted: 200 nM, 24 to 48 hours, FIG. 6. The method, then: (§1) HeLa cells (1.5×10^5/well) were plated into a 6-well plate with MEM medium containing 10% FCS and 1× nonessential amino acids. HDAC6 antisense oligonucleotide No. 4, 5, 6 or 16 at the final concentration of 200 nM or the control oligonucleotide was introduced into the cells with OligofectAMINE at 3 μl/well, and the cells were treated for 24 hours, 30 hours, 36 hours, or 48 hours. The cells were detached by trypsin treatment and collected, and stained with Annexin V-PE (Becton Dickinson) according to a protocol attached, and analyzed using the FACS caliber (Becton Dickinson).
Thus, the collected cells were washed with PBS, suspended in 100 μl of the binding buffer (Becton Dickinson), to which suspension 5 μl of Annexin V-PE was added and incubated for 15 minutes, and the binding buffer was added to make a total volume of 500 μl. This was subjected to FACS analysis.

For data set [5], the system named is HeLa cells. In words: Depolarization of mitochondrial membrane potential in HeLa cells (JC-1, FACS). Particulars: 200 nM, 24, 36 or 48 hours, FIG. 7. The method, then: as §1, with “5” for “5, 6”, “hours,” for “hours, 30 hours,”, “hours” for “hours,”, “Mitochondrial potential sensor JC-1 (Molecular Probes) was added to the medium at the final concentration of 10 μg/ml and the cells were further caltivated at 37° C. for 10 minutes. Ten minutes later, the” for “The”, “and” for “and stained with Annexin V-PE (Becton Dickinson) according to a protocol attached, and”
Therefore, in order to detect the cells in which mitochondrial membrane potential is depolarized, the ratio of green fluorescence-positive cells was graphically shown and used as an index of apoptosis.

The subject of data set [6] is HDAC6. Nature of the data set: Suppression of HDAC6 protein expression in HepG2, SW480, LoVo and Calu-1 cells (Western blot). To be noted: HepG2, SW480, LoVo, Calu-1 cells; 200 nM, 48 hours; FIG. 8.

Consider “antisense oligonucleotide 6: phosphorothioated HDAC6 antisense oligonucleotide TTTATTACAT ATGCAACCTT, upstream sequence comprising the polyadenylation signal; used as negative control (antisense TTTATTACATATGCAACCTT; all phosphorothioate, sugars by position and methylation of C not given here)”, for which the “acetylation of α-tubulin, changing treatment time” value in the data set on acetylated α-tubulin is “enhances the acetylation of α-tubulin”. Further, the “production of HDAC6, changing treatment time” value in the data set with HDAC6 [1] was “inhibits the production of HDAC6”.
In the case of `CC(=O)O[C@H]1C(=O)[C@@]2(C)[C@H]([C@H](OC(=O)c3ccccc3)[C@]3(O)C[C@H](OC(=O)[C@H](O)[C@@H](NC(=O)c4ccccc4)c4ccccc4)C(C)=C1C3(C)C)[C@]1(OC(C)=O)CO[C@@H]1C[C@@H]2O` [Paclitaxel], in the data set with HeLa cells [2] (1 μM, 16 hours), the “microtubule structure, stained with anti-acetylated α-tubulin antibody” value was “hyperpolymerized microtubules from the centromere were observed” and the “microtubule structure, stained with anti-α-tubulin antibody” value is recorded as “hyperpolymerized microtubules were observed in the periphery of the nucleus”. The “microtubules after Colcemid in pretreated cells” value in the data set with HeLa cells [3] is on record as “the remaining of the polymerized microtubules was observed”.
As to “antisense oligonucleotide 5: phosphorothioated HDAC6 antisense oligonucleotide GCTGCCTGGT TGTGGTGGAA, complementary to a sequence downstream of ATG (antisense GCTGCCTGGTTGTGGTGGAA; all phosphorothioate, sugars by position and methylation of C not given here)”, the “acetylation of α-tubulin, changing treatment time” value in the data set on acetylated α-tubulin is on record as “the acetylation of α-tubulin was enhanced at any time”. Further, the “apoptosis judged by Annexin V positivity” value in the data set on HeLa cells [4] is “induces apoptosis”. Further, in the data set with HDAC6 [1], the “production of HDAC6, changing treatment time” value is on record as “inhibits the production of HDAC6”. For the same molecule, the “mitochondrial depolarization judged by JC-1 staining” value in the data set on HeLa cells [5] is listed as “induces mitochondrial depolarization”.
Turning to `CC(/C=C/C(=O)NO)=C\[C@@H](C)C(=O)c1ccc(N(C)C)cc1` [Trichostatin A], the microtubule structure result in the data set on HeLa cells [2] (1 μM Trichostatin A 16 hours or 200 nM antisense oligonucleotide 24 hours) is listed as “images of polymerized microtubules were observed throughout the cytoplasm”. In the data set on HeLa cells [3], the “microtubules after Colcemid in pretreated cells” value is “the remaining of the polymerized microtubules was observed”.
For “control oligo: control oligonucleotide CCTCTTACCT CAGTTACAAT, from abnormal splicing site 705 of β globin pre-mRNA; no specific target in normal cells (antisense CCTCTTACCTCAGTTACAAT; all phosphorothioate, sugars by position and methylation of C not given here)”, the “amount of expressed HDAC6 protein” value with HDAC6 [1] (200 nM oligonucleotide, 48 hours after introduction, FIG. 3) is given as “did not have any activity of causing the reduction of HDAC6 protein expression”. Moreover, the “amount of expressed HDAC6” value in the data set with HDAC6 [6] is “did not have any activity of causing the reduction of HDAC6 protein expression”.
